{"source": "patent US8742076B2", "about": "“Nemorubicin metabolite and analog reagents, antibody-drug conjugates and methods” (Genentech, Inc., priority 2008, dated 2014)", "origin": "cited, not measured here", "key": {"[1]": {"conditions": "comparison with nemorubicin and doxorubicin"}}}
{"smiles": "COc1cccc2c1C(=O)c1c(O)c3c(c(O)c1C2=O)C[C@@](O)(C(=O)CO)C[C@@H]3O[C@H]1C[C@H]2[C@H](O[C@@H]3[C@@H](OC)OCCN32)[C@H](C)O1", "note": "[PNU (159682), 3′-deamino-3″,4′-anhydro-[2″(S)-methoxy-3″(R)-oxy-4″-morpholinyl]doxorubicin]", "values": [{"measurement": "efficacy in in vivo tumor models", "setting": "tumor models", "value": "effective"}, {"measurement": "cytotoxicity in vitro compared with nemorubicin and doxorubicin", "setting": "[1]", "value": "remarkably more cytotoxic than nemorubicin and doxorubicin"}]}
